The subject of data set [1] is DNA (G4C2)4 (SEQ ID NO: 5) G4. Briefly: 1D 1H-NMR titration of DNA (G4C2)4 G4. The following applies: for binding to DNA (G4C2)4 G4 by NMR titration: G4:compound ratio 1:1 to 1:10. Format: binding. How it is done:
(§1) Single […] were purchased from Integrated DNA Technologies (IDT) and Takara. Single-strand DNA/RNA sample at 100 μM was then annealed by heating up to 95° C. for 15 mins, and slowly cooled to room temperature in the annealing buffer (70 mM KCl, 20 mM potassium phosphate (pH 7.0)) for overnight. The final NMR samples contained 0.1 mM DNA or RNA in 70 mM KCl and 20 mM potassium phosphate buffer (pH 7.0).
(§2) The 1D ^1H-NMR spectra were performed at 25° C. All compounds were dissolved in isotope-labeled d6-DMSO (Sigma-Aldrich) at about 50 mM concentration, working as stock solutions. To avoid chemical shift changes of DNA/RNA G4 resulted from d6-DMSO addition, […] d6-DMSO was added into 500 μL of 0.1 mM DNA/RNA G4 solution in the NMR buffer (20 mM potassium phosphate buffer and 70 mM KCl, pH 7.0, 10% D2O) and then 1D ^1H-NMR spectrum was recorded as a reference. During NMR titration experiments of adding each compound into the DNA/RNA G4 solution, the maximal volume of 10 μL of each compound in d6-DMSO solution was regarded as a final data point.
We next confirmed the binding of cA and DNA (G4C2)4 (SEQ ID NO: 5) G4 by NMR titration experiments.

Data set [2] deals with RNA (G4C2)2 (SEQ ID NO: 8) G4. In words: 1D 1H-NMR titration of RNA (G4C2)2 G4. The format is binding. The following applies: ratios 1:3, 1:5, 1:10. The method, then: as §1
as §2, with “point. […]” for “point.”

Data set [3] has as its system DNA (G4C2)2 (SEQ ID NO: 4) G4. In words: 1D 1H-NMR titration of DNA (G4C2)2 G4. Format: binding. The conditions noted are these: cA at 1:1, 1:5, 1:10. How it is done: as §1, §2
(§3) In addition to the four-repeat G4C2 DNA G4, there are parallel and hybrid G4 conformations formed simultaneously by the two-repeat G4C2 DNA^38,39. […]

A short description of data set [4]: Parallel artificial membrane permeability assay (PAMPA). The format is in vitro ADME. The conditions noted are these: 500 μM; 37° C., 18 hours. How it is done:
500 μL of 500 μM test compound and 200 μM Equilibrium Standards for each test compound were prepared. 5 μL DMSO plus 245 μL PBS served as blank control. Firstly, 300 μL PBS was added to each well in the acceptor plate. With the donor plate in its tray, 5 μL 4% Lecithin in Dodecane was added directly to the well membranes of the donor plate. 200 μL of each 500 μM test compound was added to duplicate wells of the donor plate. The donor plate was carefully placed into the acceptor plate wells and incubated at 37° C. for 18 hours. Then the liquid in acceptor plate wells was collected as Acceptor Solution for analysis. Absorbance spectrum from 200 nm to 500 nm in 10 nm intervals was read to determine the peak absorbance of test compounds and blank control.
In addition, we also tested the permeability on live cells. Neuro2a cells treated with cA at different concentrations (10 μg/ml, 20 μg/ml) for different incubation time (24 h, 48 h) were lysed. Supernatants of cell lysates were collected and analyzed by UPLC-MS. Meanwhile, cell media from different treatment groups were used as control. […] In contrast, the intensity of cA signal was the same in the three corresponding cell media groups (FIG. 25, 4-6).
(In PAMPA a lipid-coated filter parts donor from acceptor wells.)

For data set [5], the system named is human telomeric variant htel21_T18 G4. In words: 1D 1H-NMR titration of human telomeric variant htel21_T18 G4. The following applies: cA at 1:10. Format: binding. The method, then:
as §1, §2, §3

The next data set addresses T1, Tau-R3 (Homo sapiens, UniProt P10636).
T1 construct: Tau-R3 protein was synthesized and purchased from ChinaPeptides Co., Ltd; purchased ChinaPeptides Co., Ltd; host or cells: chemical synthesis
In words: Thioflavin T (ThT) fluorescent tau-R3 aggregation assay. The conditions noted are these: 20 μM Tau-R3, 10 μM heparin, read-out: IC50 of Tau-R3 aggregation inhibition (converted). Format: biochemical. How it is done:
Tau-R3 protein was synthesized and purchased from ChinaPeptides Co., Ltd. ThT (ab120751, 1 mM) solution was freshly prepared in 50 mM Tris-HCl buffer (pH 7.4) and passed through a 0.45 μm pore size filter to remove insoluble particles before use. Tau-R3 (20 μM) was incubated with 20 μM ThT and 10 μM heparin in the presence or absence of cA, cB and cC. Samples in 200 μL were added to 96-well plates and incubated at 37° C. for 24-48 hours. ThT fluorescence intensity was recorded using a microplate reader with 440/480 nm excitation/emission filters at different time points. Non-linear regression analysis was performed to fit the boltzmann sigmoidal.
In the C9orf72 ALS/FTD, there is a strong genetic association between the microtubule-binding protein, tau and the G4C2 HRE. […] The co-expression of Tau and G4C2 repeats produces a synergistic deterioration of the neurodegeneration phenotype of ALS/FTD^46. Considering the tight correlation of Tau aggregation with the ALS/FTD pathogenesis, we tested our compounds in a non-cell-based Tau-R3 aggregation inhibition assay. […] Moreover, we conducted high magnification TEM imaging to characterize the morphological changes of Tau-R3 fibrils with cA, cB and cC treatments. […] Furthermore, the misfolding of tau protein into filaments in neurons of the central nervous system can be found in various neurodegenerative diseases, such as Alzheimer's disease et al. Therefore, the inhibition on tau aggregation represented a potential of cA and its derivatives in targeting multiple other neurodegenerative diseases more than ALS.

In data set [6] the test system is differentiated HT22 cells. Briefly: cells. Format: cell-based. The following applies: for EC50: Mus musculus, HT-22, differentiated HT22 cells pre-treated with 5 mM L-glutamate, cell viability; for neuroprotective activity compared with cA: comparison of analogs. How it is done: Cytotoxicity of compounds was tested by MTT assay. Cells were grown in DMEM (Gibco) with 10% FBS and 1% penicillin-streptomycin at 37° C. with 5% CO2. In total, 5×10^3 cells were seeded in each well of 96-well plates and cultured for 24 hours. Then cells were treated with different concentrations of compounds dissolved in DMSO for another 24 hours. After incubating with 20 μl of MTT (5 mg/mL) for each well at 37° C. for another four hours, 100 μl of DMSO was added to dissolve formazan. Absorbance was measured using a Multiskan™ FC microplate photometer at 570 nm. IC50 data were analyzed with GraphPad Prism software.
Cultured HT22 cells were differentiated by applying 10 μM retinoic acid (Sigma-Aldrich, R2625-50MG) and 500 μM cAMP (Sigma-Aldrich, A6885) in DEME medium supplied with 0.5% FBS (differentiation medium) and incubated 48 hours before adding other treatments. 5 mM L-glutamate acid was applied to the original differentiation medium for further 24-hours incubation. Cell viability was measured by MTT assay described above.
In the C9orf72 associated ALS/FTD, the G4C2 HRE make motor neurons more vulnerable to aberrant neuron excitation^43. Meanwhile, the hyperactivation of glutamate receptors drives a toxic level of neuronal activity, promoting the non-ATG (RAN) translation of G4C2 repeat-associated DPR proteins^44, leading to further toxicity of motor neurons. Thus, we would like to test our compounds in a glutamate (E)-induced excitotoxicity cell model.

For the next data set, the target named is T2, RRM domain of hnRNP H (Homo sapiens, UniProt P31943).
T2 construct: HSQC spectra of RRM1/2 of hnRNP H; hexahistidine (cleaved yes); made in house; host or cells: Escherichia coli BL21(DE3), pET-28a(+)
T2 sequence (P31943 1-194 limits assumed): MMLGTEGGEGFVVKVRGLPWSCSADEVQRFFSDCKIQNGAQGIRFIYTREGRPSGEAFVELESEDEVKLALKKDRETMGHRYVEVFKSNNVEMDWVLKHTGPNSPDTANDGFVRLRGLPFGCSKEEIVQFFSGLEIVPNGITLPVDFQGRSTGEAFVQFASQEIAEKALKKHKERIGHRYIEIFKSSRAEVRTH
Briefly: 1H-15N HSQC NMR titration of hnRNP H RRM domain. The conditions noted are these: ratios 1:5 and 1:10. Format: binding. The method, then:
The coding sequence of the RRM domain of hnRNP H/F, or human Orc6 was inserted into the expression vector pET-28a(+) (Novagen). Protein was expressed in Escherichia coli BL21(DE3) at 37° C. for 5 hours. Cell lysates were subject to affinity purification with nickel-nitrilotriacetic acid resin (Qiagen) followed by cleavage of hexahistidine tag with Protease 3C enzyme. Products were further purified on a Superdex 75 column (GE Healthcare). For NMR studies, uniformly ^15N labeled protein was expressed and purified as described above, except for cells grown in M9 medium containing 100% ^15N enriched ammonium chloride (Cambridge Isotopes) and d-glucose.
Titration experiments were performed by recording a series of 2D ^15N-HSQC spectra on uniformly ^15N-labeled RRM domain (˜0.1 mM) in the presence of different amounts of DNA/RNA or compounds at 25° C. Protein samples and stock solutions of DNA/RNA were all prepared in 20 mM potassium phosphate buffer and 70 mM KCl, pH 7.0, 10% D2O. All compounds were dissolved in isotope-labeled d6-DMSO (Sigma-Aldrich) at about 50 mM concentration, working as stock solutions. To avoid chemical shift changes of protein samples resulted from d6-DMSO addition, 10 μL d6-DMSO was added into 500 μL of 0.1 mM protein solution in the NMR buffer (20 mM potassium phosphate buffer and 70 mM KCl, pH 7.0, 10% D2O) and then the 2D HSQC was recorded as a reference.
In this scenario, specific RNA-binding proteins (RBPs), like hnRNP H, are recruited by the RNA foci, resulting in RNA processing impairment and further cytotoxicity to the central nervous system^30,36,37. Therefore, we tested the binding possibility of cA with the RRM domain of hnRNP H by NMR titration. […] Intriguingly, the DNA (G4C2)4 (SEQ ID NO: 5) G4 was also shown a potent binding affinity to the RRM domain of hnRNP H (FIG. 4C).

Each structure is given as a SMILES string.

T1 sequence (P10636 623-653 limits assumed): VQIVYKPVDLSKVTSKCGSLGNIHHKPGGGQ

On to `N=C(N)c1ccc(-c2ccc(-c3ccc(-c4ccc(C(=N)N)cn4)o3)o2)nc1` [DB1246, reference compound], for which, in data set [1], the “binding to DNA (G4C2)4 G4 by NMR titration” value is “strongly bound”. In addition, the “binding to RNA (G4C2)2 G4 by NMR titration” value in data set [2] is recorded as “strongly bound”. Also, the “binding to DNA (G4C2)2 G4 by NMR titration” value in data set [3] is listed as “strongly bound”. Besides, the “permeability (PAMPA)” value in data set [4] was “much worse permeability than cA, cB, cC”. For the same compound, the “binding to htel21_T18 G4 by NMR titration” value in data set [5] is “strongly bound”.
On to `COc1c2c(c(O)c3c(=O)c4cccc(O[C@@H]5O[C@H](C(=O)O)[C@@H](O)[C@H](O)[C@H]5O)c4oc13)-c1c(cc(CC(C)=O)c(C(=O)O)c1O)CC2` [cD, chrexanthomycin D], for which the IC50 (in general, the concentration that gives 50% inhibition) on Tau-R3 is 4.75 µM. Moreover, in data set [6], the “cytotoxicity (structure-activity summary)” value is on record as “showed cytotoxicity”; the EC50 – broadly, the concentration at which the effect is half-maximal – is 53.6 µM; the “neuroprotective activity compared with cA” value was “worse than cA”.
On to `COc1c2c(c(OC)c3c(=O)c4cccc(O[C@@H]5O[C@H](C(=O)O)[C@@H](O)[C@H](O)[C@H]5O)c4oc13)-c1c(cc(CC(C)=O)c(C(=O)O)c1O)CC2` [cE, chrexanthomycin E], for which the IC50 on Tau-R3 was 6.13 µM. Besides, in data set [6], the “cytotoxicity (structure-activity summary)” value is “showed cytotoxicity” and the “neuroprotective activity compared with cA” value is on record as “worse than cA”.
Take `C[C@@]1(O)Cc2cc3c(c(O)c2C(=O)O1)-c1c(c(O)c(O)c2c(=O)c4cccc(O[C@@H]5OC(C(=O)O)=C[C@H](O)[C@H]5O)c4oc12)CC3` [cF, chrexanthomycin F]: at RRM domain of hnRNP H, the “binding to RRM domain of hnRNP H by NMR titration” value is recorded as “much weaker bindings”. In data set [1] (DNA (G4C2)4 G-quadruplex and hnRNP H, FIGS. 3C-3E), the “binding affinity order according to NMR titration” value is listed as “cC>cA>cB>cF”. Also, in data set [1], the “binding to DNA (G4C2)4 G4 by NMR titration” value was “proved to bind”. The “neuroprotective activity compared with cA” value in data set [6] is listed as “worse than cA”.
Take `CC12CC3CC(C)(C1)CC(N)(C3)C2` [memantine, reference compound]: the EC50 in data set [6] was determined as 23.9 µM.
As for `COCCOC(=O)C1=C(C)NC(C)=C(C(=O)OC(C)C)C1c1cccc([N+](=O)[O-])c1` (stereo not drawn) [nimodipine, reference compound], the EC50 in data set [6] was found to be 1.14 µM.

Values taken from patent publication US11820762B2, “Compounds as potential therapeutic agents targeting various neurodegenerative diseases” (The Hong Kong University of Science and Technology, priority 2020, dated 2023).
